Measurements reported in patent US20230017045A1, “PYRIDINE AND PYRIMIDINE CARBOXYLATE HERBICIDES AND METHODS OF USE THEREOF” (Dow AgroSciences LLC, priority 2017, published 2023).
Read-outs that look alike come from different tables or passages of the source.

Tested on: test plant species
Assay: Post-emergent herbicidal activity test (greenhouse, foliar spray, visual growth reduction)
Assay type: in vivo
Details: post-emergence, 336 h, 140 g ai/ha
In short: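 Seedlings were raised 7-21 d in a greenhouse under a 15 h photoperiod until the first or second true leaf. Each compound, dissolved in acetone:DMSO 97:3 and diluted into a surfactant-containing spray mixture, was then applied at 187 L/ha. Plants were subirrigated, and growth reduction was scored visually at 14 d.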

[1] = ECHCG: barnyardgrass (Echinochloa crus-galli), 14 days after application, read-out: Visual Growth Reduction (%) 14 Days After Application, ECHCG
[2] = IPOHE: ivy-leaf morning glory (Ipomoea hederacea), 14 days after application, read-out: Visual Growth Reduction (%) 14 Days After Application, IPOHE
[3] = KCHSC: kochia (Bassia scoparia), 14 days after application, read-out: Visual Growth Reduction (%) 14 Days After Application, KCHSC
[4] = ORYSA: rice (Oryza sativa), 14 days after application, read-out: Visual Growth Reduction (%) 14 Days After Application, ORYSA
[5] = SETFA: giant foxtail (Setaria faberi), 14 days after application, read-out: Visual Growth Reduction (%) 14 Days After Application, SETFA
[6] = SORVU: grain sorghum (Sorghum vulgare), 14 days after application, read-out: Visual Growth Reduction (%) 14 Days After Application, SORVU
[7] = STEME: common chickweed (Stellaria media), 14 days after application, read-out: Visual Growth Reduction (%) 14 Days After Application, STEME
[8] = TRZAS: wheat, spring (Triticum aestivum), 14 days after application, read-out: Visual Growth Reduction (%) 14 Days After Application, TRZAS
[9] = blackgrass (Alopecurus myosuroides), 14 Days After Application, read-out: Visual Growth Reduction (%) ALOMY
[10] = canada thistle (Cirsium arvense), 14 Days After Application, read-out: Visual Growth Reduction (%) CIRAR
[11] = crabgrass (Digitaria sanguinalis), 14 Days After Application, read-out: Visual Growth Reduction (%) DIGSA
[12] = lambsquarters (Chenopodium album), 14 Days After Application, read-out: Visual Growth Reduction (%) CHEAL
[13] = redroot pigweed (Amaranthus retroflexus), 14 Days After Application, read-out: Visual Growth Reduction (%) AMARE
[14] = wild oat (Avena fatua), 14 Days After Application, read-out: Visual Growth Reduction (%) AVEFA
[15] = yellow nutsedge (Cyperus esculentus), 14 Days After Application, read-out: Visual Growth Reduction (%) CYPES

Structure (SMILES) | pest or weed control at 140 g/ha [1] [%] | pest or weed control at 140 g/ha [2] [%] | pest or weed control at 140 g/ha [3] [%] | pest or weed control at 140 g/ha [4] [%] | pest or weed control at 140 g/ha [5] [%] | pest or weed control at 140 g/ha [6] [%] | pest or weed control at 140 g/ha [7] [%] | pest or weed control at 140 g/ha [8] [%] | pest or weed control at 140 g/ha [9] [%] | pest or weed control at 140 g/ha [10] [%] | pest or weed control at 140 g/ha [11] [%] | pest or weed control at 140 g/ha [12] [%] | pest or weed control at 140 g/ha [13] [%] | pest or weed control at 140 g/ha [14] [%] | pest or weed control at 140 g/ha [15] [%] | other results
COC(=O)c1nc(-c2ccc(C(F)F)c(F)c2OC)c(F)cc1Cl [F253, methyl 3-chloro-6-(4-(difluoromethyl)-3-fluoro-2-methoxyphenyl)-5-fluoropicolinate] | 60 to 74 | 95 to 100 | 95 to 100 | 0 to 29 | 0 to 29 | 45 to 59 | 0 to 29 | 0 to 29 | 0 to 29 | 95 to 100 | 0 to 29 | 95 to 100 | 95 to 100 | 0 to 29 | 0 to 29 | –
COc1cc(-c2ccc(Cl)c(C(=O)O)n2)ccc1C(F)(F)F [F317, 3-Chloro-6-(3-methoxy-4-(trifluoromethyl)phenyl)picolinic acid] | 0 to 29 | 60 to 74 | 0 to 29 | 0 to 29 | 0 to 29 | 0 to 29 | 0 to 29 | 0 to 29 | 0 to 29 | 0 to 29 | 0 to 29 | 0 to 29 | 0 to 29 | 0 to 29 | 0 to 29 | –
COC(=O)c1nc(-c2cc(C)c(C(F)(F)F)cc2F)c(F)cc1Cl [F360, Methyl 3-chloro-5-fluoro-6-(2-fluoro-5-methyl-4-(trifluoromethyl)phenyl)picolinate] | 0 to 29 | 95 to 100 | 45 to 59 | 0 to 29 | 0 to 29 | 0 to 29 | 0 to 29 | 0 to 29 | 0 to 29 | 0 to 29 | 0 to 29 | 95 to 100 | 95 to 100 | 0 to 29 | 0 to 29 | –
COC(=O)c1nc(-c2ccc(C(F)(F)F)c(Cl)c2)ccc1Cl [F304, Methyl 3-chloro-6-(3-chloro-4-(trifluoromethyl)phenyl)picolinate] | 0 to 29 | 95 to 100 | 0 to 29 | 0 to 29 | 0 to 29 | 0 to 29 | 0 to 29 | 0 to 29 | 0 to 29 | 0 to 29 | 30 to 44 | 0 to 29 | 0 to 29 | 0 to 29 | 0 to 29 | –
COC(=O)c1nc(-c2ccc(C(F)(F)F)cc2C)c(F)cc1Cl [F170, Methyl 3-chloro-5-fluoro-6-(2-methyl-4-(trifluoromethyl)phenyl)picolinate] | 60 to 74 | 95 to 100 | 60 to 74 | 0 to 29 | 85 to 94 | 85 to 94 | 0 to 29 | 60 to 74 | – | – | – | – | – | – | – | pest or weed control at 140 g/ha (ALOMY: blackgrass (Alopecurus myosuroides), 14 days after application, read-out: Visual Growth Reduction (%) 14 Days After Application, ALOMY): 45 to 59%; pest or weed control at 140 g/ha (AMARE: redroot pigweed (Amaranthus retroflexus), 14 days after application, read-out: Visual Growth Reduction (%) 14 Days After Application, AMARE): 95 to 100%; pest or weed control at 140 g/ha (AVEFA: wild oat (Avena fatua), 14 days after application, read-out: Visual Growth Reduction (%) 14 Days After Application, AVEFA): 30 to 44%; pest or weed control at 140 g/ha (CHEAL: lambsquarters (Chenopodium album), 14 days after application, read-out: Visual Growth Reduction (%) 14 Days After Application, CHEAL): 95 to 100%; pest or weed control at 140 g/ha (CIRAR: canada thistle (Cirsium arvense), 14 days after application, read-out: Visual Growth Reduction (%) 14 Days After Application, CIRAR): 85 to 94%; pest or weed control at 140 g/ha (CYPES: yellow nutsedge (Cyperus esculentus), 14 days after application, read-out: Visual Growth Reduction (%) 14 Days After Application, CYPES): 60 to 74%; pest or weed control at 140 g/ha (DIGSA: crabgrass (Digitaria sanguinalis), 14 days after application, read-out: Visual Growth Reduction (%) 14 Days After Application, DIGSA): 85 to 94%
